Measurements: patent US6835754B2, “Use of aryl nitrone compounds in methods for treating neuropathic pain” (Renovis, Inc., priority 2001, dated 2004)
Entries after “also recorded” stand apart in the source; their conditions may differ.

Experiments:
[1] = tested on: male Swiss Webster mice, phenylquinone-induced writhing; test: Phenylquinone (PQ) writhing assay, % inhibition (Swiss Webster mice); format: in vivo; conditions: for inhibition at 30 mg/kg / % Inhibition of Writhing Response: 30 mg/kg orally in 1% methyl cellulose, 1 hour before PQ 2 mg/kg ip; for inhibition at 30 mg/kg: read-out: % Inhibition of Writhing Response
Description: Test compounds were prepared as a suspension in 1% methyl cellulose and dosed orally at a dose of 30 mg/kg to male Swiss Webster mice weighing between 15 and 25 g with 10 mice per group. Test compounds was given 1 hour before the injection of phenylquinone. Phenylquinone (Sigma) was injected intraperitoneally at a dose of 2 mg/kg. After a 5 minute acclimation period, the number of writhes was counted for a 5 minute observation period for each mouse. The total number of writhes for each test compound was compared with a vehicle group. Results were expressed as % inhibition compared to the vehicle treated group means (Table VII).
In related experiment, a dose response relationship was established for the compound of Example 1 using the same experimental protocl as above. […] This is shown graphically in FIG. 2.

[2] = tested on: ICR derived male mice, phenylquinone-induced writhing; test: Phenylquinone (PQ) Writhing assay, number of writhes (MDS Panlabs, ICR mice); format: in vivo; conditions: for analgesia relative to vehicle control group (PQ writhing): 100, 30 and 10 mg/kg orally, P<0.01 for all 3 doses, Dunnett's test; for # Writhes (X + SEM): per os, 60 min before PQ 2 mg/kg ip, vehicle 20.8 ± 0.7, **P<0.01
Description: The compounds of Example 20 and Example 16 administered orally at doses of 10, 30 and 100 mg/kg. Vehicle of 2% Tween 80 in distilled water was used.
In this study, ICR derived male mice provided by animal breeding center of MDS Panlabs Taiwan, Ltd. were used. Space allocation for 10 animals was 45×23×15 cm. Mice were housed in APEC^R (Allentown Gaging, Allentown, N.J. 08501, U.S.A.) cages in a positive pressure isolation (NuAire^R, Mode: Nu-605, airflow velocity 50±5 ft/min, HEPA Filter) and maintained in a controlled temperature (22°-24° C.) and humidity (60%-80%) environment with 12 hour light dark cycles for at least one week in MDS Panlabs Taiwan laboratory prior to be used. Free access to standard lab chow for mice (Fwusow Industry Co., Limited, Taiwan) and tap water was granted. All aspects of this work including housing, experimentation and disposal of animals were performed in general accordance with the International Guiding Principles for Biomedical Research Involving Animals (CIOMS Publication No. ISBN 92 90360194, 1985).
The method of Siegmund, E. et al., Proc. Soc. Exp. Biol. Med. 95: 729-731, 1957, “A method for evaluating both non-narcotic and narcotic analgesics” was used. One hour after vehicle or compound administration, the number of writhes was recorded for each mouse in groups of 10 animals during a 5 to 10 minute period following 2 mg/kg. 1.p. of phenylquinone.
Groups of 10 male ICR mice weighing 22±2 gm were employed. Three doses (10, 30 and 100 mg/kg) of test substances suspended in a vehicle of 2% Tween 80 were administered per os. The control group received vehicle alone. […] The mean±SEM value of writhing number for each treatment group was then calculated and Dunnett's test was applied for comparison between vehicle and treated groups. Differences were considered significant when P<0.01.

[3] = tested on: Chronic constriction injury (CCI) rats; test: Bennett chronic constriction injury (CCI) mononeuropathy, cold allodynia assay; format: in vivo, Sparague Dawley rats
Description: The peripheral mononeuropathy was induced by loose ligation of the sciatic nerve in anaesthetized rats. Ten days later, the nociceptive threshold was evaluated. The test compound is administered orally 1 hour prior to pain measurement. For comparison, a predose threshold was determined and a control experiment using 1% methyl cellulose was run. […] Animals were again tested 1-2 hrs post-dose. Predose and postdose average scores are determined.
In a related experiment a dose-response relationship for the compound of Example 20 was determined using the same experimental protocol. […] Animals were again tested 1 hr post-dose.

[4] = tested on: Rats (Sprague-Dawley); test: Rat hot-plate assay (55° C.) for general analgesia; format: in vivo
Description: The purpose of the experiment was to determine if the compound of Example 16 has significant general analgesic activity as opposed to the desired activity against neuropathic pain. Test compound, 1% methylcellulose as a vehicle and morphine sulfate as a positive standard were tested for analgesic activity using a rat hot-plate assay (55° C.) of Eddy and Leimbach (J. Pharmacol. Ep. Ther 107; 385-393 (1953)) to evaluate nociceptive responses.
Rats (Sprague-Dawley, 217-227 g.) were used with 10 animals per group. Two pre-dose trials to nociceptive responses were determined before administration of compounds. Sixty minutes prior to testing, rats were dosed with either test compound (100 mg/kg, p.), as a suspension in 1% methylcellulose, or 1% methylcellulose as a vehicle ([…], p.). thirty minutes prior to testing, a third group was dosed with morphine sulfate (4.0 mg/kg, 2.0 ml/kg, sc) to test for nociceptive responses using a hot plate. Latency to rear paw licking response or jump response (1) was recorded using an electronic timer. The cut-off time for either response was 30 seconds. Statistical significance was assessed for paired groups using a Turkey test and between non-paired groups using Kruskal-Wallis test. A probability value of <0.05 was identified as statistically significant.

[5] = tested on: Rats, Type II collagen assay; test: Hargreaves test (withdrawal latency to heat) in Type II collagen assay; format: in vivo; conditions: rats Day 20 of Type II collagen assay
Description: The compound of Example 20 was further tested in a Hargreaves test, another accepted model for neuropathic pain.
Rats were tested on Day 20 in Type II collagen assay. […] Two hours after the 1st dose of drug on Day 20, animals were placed on a Hargreaves apparatus glass table. A high intensity light was placed under the one hind paw and illuminated, thus creating heat. At the same time, a clock was started. The light turned off, and the clock simultaneously stopped when the animal removed the paw. The time the rat is able to withstand the hear is considered withdrawal latency.

Question: What does the source list for `CC(C)(C)CC(C)(C)[N+]([O-])=Cc1cc(C(C)(C)C)c(O)c(C(C)(C)C)c1` [Example 21, α-(4-hydroxy-3,5-di-tert-butylphenyl)-N-tert-octylnitrone]?
Answer: inhibition at 30 mg/kg ([1]; Mus musculus): 30%; melting point: 113 to 115 °C

Question: Which results are given for `COCOc1c(C(C)(C)C)cc(/C=[N+](\[O-])C(C)(C)C)cc1C(C)(C)C` [Example 16, α-(4-Methoxymethoxy-3,5-di-tert-butylphenyl)-N-tert-butylnitrone]?
Answer: analgesia relative to vehicle control group (PQ writhing) [2]: significant; # Writhes (X + SEM) ([2]; Dose 30 mg/kg): 3.9 ± 1.3**; # Writhes (X + SEM) ([2]; Dose 10 ml/kg as printed): 14.9 ± 1.2**; # Writhes (X + SEM) ([2]; Dose 100 ml/kg as printed): 1.3 ± 0.6**; effectiveness in cold stimulus latency, Bennett CCI model ([3]; 100 mg/kg, p.o., tested 1-2 hrs post-dose, FIG. 3): effective; effect on hot-plate latency compared with pre-dose ([4]; 100 mg/kg orally, sixty minutes prior to testing): did not significantly affect; hot-plate latency, post-dose (mean±SEM) ([4]; 100 mg/kg orally, sixty minutes prior to testing, pre-dose 7.9±1.0 seconds): 9.7 ± 1.0 s

Question: With “α-(4-n-Butanoyl-3,5-di-tert-butylphenyl)-N-tert-butylnitrone [Example 3]” as the compound, how does the “% Inhibition of Writhing Response” value [1] read?
Answer: 62%

Question: With `CC(=O)Oc1c(C(C)(C)C)cc(/C=[N+](/C)[O-])cc1C(C)(C)C` [Example 9, α-(4-acetoxy-3,5-di-tert-butylphenyl)-N-methylnitrone] as the compound, how does the melting point read?
Answer: 136 to 143 °C

Question: For `CCOc1c(C(C)(C)C)cc(/C=[N+](\[O-])C(C)(C)C)cc1C(C)(C)C` [Example 33, α-(4-ethoxy-3,5-di-tert-butylphenyl)-N-tert-butylnitrone], which inhibition at 30 mg/kg ([1]; Mus musculus) is on record?
Answer: 4%

Question: What about the melting point of the same compound?
Answer: 212.1 °C

Question: What does the source list for `CC(=O)Oc1c(C(C)(C)C)cc(/C=[N+](\[O-])C(C)(C)C)cc1C(C)(C)C` [Example 1, α-(4-Acetoxy-3,5-di-tert-butylphenyl)-N-tert-butylnitrone]?
Answer: inhibition at 30 mg/kg ([1]; Mus musculus): 65%; ED50 ([1]; Mus musculus, dose response, oral, mice): 2.7 mg/kg

Question: Which “analgesia relative to vehicle control group (PQ writhing)” value [2] does the source give for `CC(C)(C)c1cc(C=[N+]([O-])C(C)(C)C)cc(C(C)(C)C)c1O` [Example 20, α-(4-hydroxy-3,5-di-tert-butylphenyl)-N-tert-butylnitrone] here?
Answer: significant

Question: What about the “# Writhes (X + SEM)” value ([2]; Dose 30 mg/kg) of the same compound?
Answer: 0.9 ± 0.5**

Question: And the “# Writhes (X + SEM)” value ([2]; Dose 10 ml/kg as printed)?
Answer: 3.1 ± 1.4**

Question: What about the “# Writhes (X + SEM)” value ([2]; Dose 100 ml/kg as printed) of the same compound?
Answer: 0.3 ± 0.2**

Question: And the “postdose latency score over vehicle, cold allodynia” value ([3]; 30 mg/kg p.o., 1 hr post-dose, p<0.05 vs. vehicle postdose)?
Answer: significant postdose latency score over vehicle

Question: And the “postdose latency score over vehicle, cold allodynia” value ([3]; 100 mg/kg p.o., 1 hr post-dose, p<0.01 vs. vehicle postdose)?
Answer: significant postdose latency score over vehicle

Question: And the “latency in the cold allodynia assay” value ([3]; various doses (10, 30, 100 mg/kg, p.o.), 1 hr post-dose, FIG. 4)?
Answer: increased latency

Question: What about the ED50 ([5]; Rattus norvegicus, po, two hours after dose) of the same compound?
Answer: 6.25 mg/kg

Question: What about the “activity in Hargreaves test (withdrawal latency)” value ([5]; doses of 10-100 mg/kg, FIG. 5) of the same compound?
Answer: Significant activity; also recorded: does exhibit activity

Question: What about the inhibition at 30 mg/kg ([1]; Mus musculus) of the same compound?
Answer: 62%

Question: For `CC(C)[N+]([O-])=Cc1cc(C(C)(C)C)c(O)c(C(C)(C)C)c1` [Example 27, a-(4-hydroxy-3,5-di-tert-butylphenyl)-N-(1-methylethyl)nitrone], which “% Inhibition of Writhing Response” value [1] is on record?
Answer: 30%

Question: Which melting point does the source give for `COCOc1c(C(C)(C)C)cc(/C=[N+](\[O-])Cc2ccccc2)cc1C(C)(C)C` [Example 31, α-(4-methoxymethoxy-3,5-di-tert-butylphenyl)-N-benzylnitrone] here?
Answer: 134.2 °C

Question: Which melting point does the source give for `CCC(=O)Oc1c(C(C)(C)C)cc(/C=[N+](\[O-])C(C)(C)C)cc1C(C)(C)C` [Example 8, α-(4-propionyloxy-3,5-di-tert-butylphenyl)-N-tert-butylnitrone] here?
Answer: 202 to 222 °C

Question: Which melting point does the source give for `CCOC(=O)COc1c(C(C)(C)C)cc(C=[N+]([O-])C(C)(C)C)cc1C(C)(C)C` [Example 34, α-(4-carbethoxymethoxy-3,5-di-tert-butylphenyl)-N-tert-butylnitrone] here?
Answer: 188 °C

Question: Which inhibition at 30 mg/kg ([1]; Mus musculus) does the source give for `COc1c(C(C)(C)C)cc(/C=[N+](\[O-])C(C)(C)C)cc1C(C)(C)C` [Example 32, α-(4-methoxy-3,5-di-tert-butylphenyl)-N-tert-butylnitrone] here?
Answer: 38%

Question: What about the melting point of the same compound?
Answer: 223.1 °C

Question: For `CCCCCC[N+]([O-])=Cc1cc(C)c(O)c(C)c1` [Example 23, a-(4-hydroxy-3,5-dimethylphenyl)-N-hexylnitrone], which “% Inhibition of Writhing Response” value [1] is on record?
Answer: 47%

Question: And the “activity in PQ writhing model” value ([1]; mice, oral)?
Answer: Significant activity

Question: For `CC(C)(C)c1cc(C=[N+]([O-])Cc2ccccc2)cc(C(C)(C)C)c1O` [Example 28, a-(4-hydroxy-3,5-di-tert-butylphenyl)-N-benzylnitrone], which “% Inhibition of Writhing Response” value [1] is on record?
Answer: 45%

Question: With `CCC(C)(C)[N+]([O-])=Cc1cc(C(C)(C)C)c(O)c(C(C)(C)C)c1` [Example 26, a-(4-hydroxy-3,5-di-tert-butylphenyl)-N-(1,1-dimethylpropyl)nitrone] as the compound, how does the “% Inhibition of Writhing Response” value [1] read?
Answer: 48%

Question: Which “% Inhibition of Writhing Response” value [1] does the source give for `CC(C)(C)c1cc(C=[N+]([O-])C(C)(C)CO)cc(C(C)(C)C)c1O` [Example 25, a-(4-hydroxy-3,5-di-tert-butylphenyl)-N-(1,1-dimethyl-2-hydroxyethyl)nitrone] here?
Answer: 30%

Question: What about the “activity in PQ writhing model” value ([1]; mice, oral) of the same compound?
Answer: Significant activity

Question: For `COCOc1c(C(C)(C)C)cc(C=[N+]([O-])CC2CCCCC2)cc1C(C)(C)C` [Example 29, α-(4-methoxymethoxy-3,5-di-tert-butylphenyl)-N-cyclohexylmethylnitrone], which melting point is on record?
Answer: 143.1 °C

Question: For “a-(4-hydroxy-3,5-dimethylphenyl)-N-tert-butylnitrone [Example 24]”, which “% Inhibition of Writhing Response” value [1] is on record?
Answer: 23%

Question: For “a-(4-hydroxy-3,5-dimethoxyphenyl)-N-tert-butylnitrone [Example 22]”, which “% Inhibition of Writhing Response” value [1] is on record?
Answer: 32%

Question: Which “effect on hot-plate mean latency compared with pre-dose” value ([4]; 4.0 mg/kg sc, thirty minutes prior to testing) does the source give for `CN1CC[C@]23c4c5ccc(O)c4O[C@H]2[C@@H](O)C=C[C@H]3[C@H]1C5.O=S(=O)(O)O` [morphine sulfate, reference compound] here?
Answer: significantly increased

Question: And the “hot-plate mean latency to jump/hind paw licking response, post-dose (mean±SEM)” value ([4]; 4.0 mg/kg sc, thirty minutes prior to testing, pre-dose 9.9±1.0 seconds, P<0.001)?
Answer: 24.3 ± 2.3 s

Question: Which “% Inhibition of Writhing Response” value [1] does the source give for “α-(4-Isobutanoyl-3,5-di-tert-butylphenyl)-N-tert-butylnitrone [Example 2]” here?
Answer: 29%
